How the values were obtained:
Experiment in all cases: MIC agar dilution test
Assay type in all cases: cell-based
Cornyebacterium xerosis = details: Experimental 1; Caso-Agar, pH 7 (+/−0.2)
Description: (§1) For testing the inhibition of bacteria, Composition 6 from Table 1 above was diluted in butylpolyglycol and added in different concentrations to liquid Caso-Agar at 50° C. and is buffered to pH 7 (+/−0.2). For testing the inhibition of yeast and mold, the Composition 6 was diluted in butylpolyglycol and added in different concentrations to liquid Sabouraud-4% Dextrose-Agar at 50° C. and is buffered to pH 5.6 (+/−0.2). Each of the solutions is poured into a petri-dish and inoculated with the same amount of bacteria, yeast or mold respectively. The minimum inhibitory concentration (MIC) is the lowest concentration of Composition 6 that inhibits the growth of the respective microorganism where the next lowest dilution fails to inhibit the growth of said microorganism.

Malassezia furfur = details: Experimental 1; Sabouraud-4% Dextrose-Agar, pH 5.6 (+/−0.2)
Description: as §1

Cornyebacterium jeikeium = details: Experimental 1; Caso-Agar, pH 7 (+/−0.2)
Description: as §1

Staph. Epidermis = details: Experimental 1; Caso-Agar, pH 7 (+/−0.2)
Description: as §1

Malassezia pachydermatis = details: Experimental 1; Sabouraud-4% Dextrose-Agar, pH 5.6 (+/−0.2)
Description: as §1

Brevibacterium linens = details: Experimental 1; Caso-Agar, pH 7 (+/−0.2)
Description: as §1

Malassezia sympiodalis = details: Experimental 1; Sabouraud-4% Dextrose-Agar, pH 5.6 (+/−0.2)
Description: as §1

Streptococcus mutans = details: Experimental 1; Caso-Agar, pH 7 (+/−0.2)
Description: as §1

Penicillium funicolosium = details: Experimental 1; Sabouraud-4% Dextrose-Agar, pH 5.6 (+/−0.2)
Description: as §1
(§2) A similar experiment was carried out versus Experimental 1. The composition employed in this second experiment is almost identical in composition to Composition 6 from Table 1 above, differing only slightly in the exact levels of the components. Composition 6a is according to the first aspect of the present invention. Here, a comparison is made versus the efficacy of phenoxyethanol, alone and in combination with composition 6a.

Staphylococcus aureus = details: Experimental 1; Caso-Agar, pH 7 (+/−0.2)
Description: as §1, §2

Enterobacter gergovia = details: Experimental 1; Caso-Agar, pH 7 (+/−0.2)
Description: as §1, §2

Penicillium minioluteum = details: Experimental 1; Sabouraud-4% Dextrose-Agar, pH 5.6 (+/−0.2)
Description: as §1, §2

Klebsiella pneumoniae = details: Experimental 1; Caso-Agar, pH 7 (+/−0.2)
Description: as §1, §2

Aspergillus terreus = details: Experimental 1; Sabouraud-4% Dextrose-Agar, pH 5.6 (+/−0.2)
Description: as §1, §2

Aspergillus brasiliensis = details: Experimental 1; Sabouraud-4% Dextrose-Agar, pH 5.6 (+/−0.2)
Description: as §1, §2

Pseudomonas aeruginosa = details: Experimental 1; Caso-Agar, pH 7 (+/−0.2)
Description: as §1, §2

Escherichia coli = details: Experimental 1; Caso-Agar, pH 7 (+/−0.2)
Description: as §1, §2

Enterobacter aerogenes = details: Experimental 1; Caso-Agar, pH 7 (+/−0.2)
Description: as §1, §2

Candida albicans = details: Experimental 1; Sabouraud-4% Dextrose-Agar, pH 5.6 (+/−0.2)
Description: as §1, §2

Fusarium solani = details: Experimental 1; Sabouraud-4% Dextrose-Agar, pH 5.6 (+/−0.2)
Description: as §1, §2

Candida parapsilosis = details: Experimental 1; Sabouraud-4% Dextrose-Agar, pH 5.6 (+/−0.2)
Description: as §1, §2

Saccharomyces cerevisiae = details: Experimental 1; Sabouraud-4% Dextrose-Agar, pH 5.6 (+/−0.2)
Description: as §1, §2

Citrobacter freundii = details: Experimental 1; Caso-Agar, pH 7 (+/−0.2)
Description: as §1, §2

Sorbitan Caprylate showed an MIC (Cornyebacterium xerosis) of 2000 ppm, an MIC (Malassezia furfur) of 600 ppm and an MIC (Cornyebacterium jeikeium) of 4000 ppm. For the same substance, the MIC (Staph. Epidermis) was 10000 ppm, the MIC (Malassezia pachydermatis) was 400 ppm and the MIC (Brevibacterium linens) was 4000 ppm. The MIC (Malassezia sympiodalis) was 400 ppm, the MIC (Streptococcus mutans) was 2000 ppm and the MIC (Penicillium funicolosium) was 400 ppm. For the same substance, the MIC (Staphylococcus aureus) was 800 ppm, the MIC (Enterobacter gergovia) was 10000 ppm and the MIC (Penicillium minioluteum) was 400 ppm. For the same substance, the MIC (Klebsiella pneumoniae) was 800 ppm, the MIC (Aspergillus terreus) was 800 ppm and the MIC (Aspergillus brasiliensis) was 800 ppm. It also gave an MIC (Pseudomonas aeruginosa) of 10000 ppm, an MIC (Escherichia coli) of 10000 ppm and an MIC (Enterobacter aerogenes) of 10000 ppm. The MIC (Candida albicans) was 800 ppm, the MIC (Fusarium solani) was 800 ppm and the MIC (Candida parapsilosis) was 800 ppm. For the same substance, the MIC (Saccharomyces cerevisiae) was 600 ppm and the MIC (Citrobacter freundii) was 10000 ppm.

— US10874599B2, “Composition for inhibiting micro-organisms” (Clariant International Ltd., priority 2016, dated 2020)
